In US4997854A, “Anti-fibrotic agents and methods for inhibiting the activity of lysyl oxidase in-situ using adjacently positioned diamine analogue substrates” (Trustees of Boston University, priority 1989, dated 1991):
Like-named read-outs stand apart in the source and are kept apart here. Blank lines part the entries; values can stand above or below the molecule they belong to.

Legend:
lysyl oxidase [1] = target: T1, lysyl oxidase (Bos taurus, UniProt P33072); assay: Lysyl oxidase peroxidase-coupled fluorescence assay of n-hexylamine oxidation; type: biochemical, bovine
T1 construct: Lysyl oxidase was purified from bovine aorta as previously described; from tissue; host or cells: bovine aorta
T1 sequence (P33072 170-418): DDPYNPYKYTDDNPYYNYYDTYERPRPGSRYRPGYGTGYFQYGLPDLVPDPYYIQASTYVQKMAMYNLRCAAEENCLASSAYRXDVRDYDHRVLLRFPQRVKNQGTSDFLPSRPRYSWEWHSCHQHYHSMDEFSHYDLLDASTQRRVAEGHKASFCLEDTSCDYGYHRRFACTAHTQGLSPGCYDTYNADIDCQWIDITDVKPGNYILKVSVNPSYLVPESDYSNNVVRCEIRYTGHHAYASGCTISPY
Method: Lysyl oxidase was purified from bovine aorta as previously described. [Williams, M. A. and H. M. Kagan, Anal. Biochem. 113:336 (1985)].
(§1) The purified lysyl oxidase enzyme was also assayed against alkyl monoamines and alkyl diamines using the reported peroxidase-coupled fluorescence method at 55° C. [Trackman et al., Anal. Biochem. 113:336-342 (1981)]. The reaction mixtures contained 40 ug horseradish peroxidase, 0.7 mM homovanillic acid, 1.2M urea, 0.02M potassium phosphate/borate buffer, at pH 8 (or at varying values of pH as indicated) in a total volume of 2 ml. Assay solutions were adjusted to an ionic strength of 0.04 using potassium chloride. Lysyl oxidase was then added to initiate the reaction. Fluorescence was continuously monitored at an excitation wavelength of 315 nm and an emission wavelength of 425 nm. The enzyme-dependent production of hydrogen peroxide was quantified by reference to standard plots relating nanomoles of hydrogen peroxide added to fluorescence units. […] Kinetic constants were derived from initial rate assay data by using the Fortan program of Cleland [Meth. Enzymol. 63:103-138 (1979)] which determines Vmax and Km values from data of Michaelis-Menten experiments using a least squares fitting procedure applied to the Michaelis-Menten equation.
The pH-dependency of the Vmax for the oxidation of a series of diamines and monoamine substrates by lysyl oxidase was first explored.
(§2) Accordingly cis and trans isomers of DACH were used to probe this possibility.

lysyl oxidase [2] = target: T1, lysyl oxidase; assay: Irreversible, time-dependent inactivation of lysyl oxidase (preincubation, then dialysis or dilution into the assay); type: biochemical, bovine; conditions: for rate of inactivation under anaerobic conditions: anaerobic / nitrogen-purged
Method: as §2
In addition, the time-dependency for the expression of irreversible inhibition was assessed by initially preincubating lysyl oxidase at 37° in the presence or absence of various concentrations of cis-DACH; and then diluting aliquots of these individual reaction mixtures into peroxidase-coupled assays for n-hexylamine oxidation - thereby reducing the cis-DACH concentrations to non-inhibitory levels within the lysyl oxidase assays. […] The possibility that the inactivation derived from the removal of the metal ion cofactor of the enzyme by the cyclic diamine was then assessed by atomic absorption spectroscopy.

lysyl oxidase [3] = target: T1, lysyl oxidase; assay: Release of 3H+ from [1,2-3H]DACH by lysyl oxidase; type: biochemical, bovine; conditions: for Ratio ^3 H^+/Oxidant / ^3 H^+ Released: 1 mM [^3 H]DACH; for ^3 H^+ Released: pH 8, 37°C, maximum level
Method: ^a/ The indicated amounts of PQQ or functional active sites of lysyl
oxidase were incubated with [^3 H]DACH (1 mM; 0.13 mCi/mmole) in 50 m
sodium borate, pH 8, at 37°C. and aliquots of the incubation
mixture were removed at intervals, distilled in vacuo and the isolated
[^3 H]H2 O was quantified by liquid scintillation spectrometry.
The values shown are the maximum levels accumulated in these assays and
are corrected for minor background
effects in the absence of oxidant.
Toward similar ends [1,2-^3 H]DACH was synthesized and used to determine whether the reaction of this diamine with limiting quantities of free PQQ or of lysyl oxidase would result in the release of ^3 H^+ --a result to be expected if carbon 1 and/or carbon 2 positions of cis-DACH were oxidized in these reaction mixtures. As provided by Table E2, approximately 2 moles of ^3 H^+ were released per mole of each limiting reactant; with a maximum of 2.30 moles of ^3 H^+ released per mole of PQQ and a maximum of 1.88 moles of ^3 H^+ released per mole of functional active site in lysyl oxidase. While the synthetic, tritiated product used in these studies consisted of a mixture of the cis and trans isomers, the concentration of [^3 H]DACH incubated with the lysyl oxidase enzyme was sufficiently low to restrict the reaction primarily to the cis isomer--based upon the previous assessment of the relative potency of these compounds as inhibitors of lysyl oxidase or as perturbants of the spectrum of PQQ.

lysyl oxidase [4] = target: T1, lysyl oxidase; assay: Protein-bound copper of lysyl oxidase by atomic absorption spectroscopy; set-up: species or system bovine; conditions: 1 mM, then dialyzed against metal-free buffer
Method: In addition, the time-dependency for the expression of irreversible inhibition was assessed by initially preincubating lysyl oxidase at 37° in the presence or absence of various concentrations of cis-DACH; and then diluting aliquots of these individual reaction mixtures into peroxidase-coupled assays for n-hexylamine oxidation - thereby reducing the cis-DACH concentrations to non-inhibitory levels within the lysyl oxidase assays. […] This is illustrated by FIG. 4. […] The possibility that the inactivation derived from the removal of the metal ion cofactor of the enzyme by the cyclic diamine was then assessed by atomic absorption spectroscopy. This method of analysis yielded the same values for protein-bound copper in aliquots of purified lysyl oxidase which had been incubated in either the presence or absence of 1 mM cis-DACH and then dialyzed extensively against metal-free buffer.

lysyl oxidase [5] = target: T1, lysyl oxidase; assay: Release of H2O2 on oxidation of cis-DACH by lysyl oxidase; type: biochemical, bovine; conditions: for Ratio H2O2/Oxidant / H2O2 Released: 1 mM cis-DACH; for H2O2 Released: maximal release
Method: as §1
In view of the apparent inhibiting effect of anaerobic conditions on the induction by cis-DACH of changes in the spectra of PQQ and lysyl oxidase, the possibility was evaluated that oxidation of the diamine substrate analogue may be involved in the development of irreversible inhibition of lysyl oxidase. […] This argues against significant catalytic turnover with the cyclic diamine. Nevertheless, as illustrated by FIG. 7, the development of irreversible inhibition was strongly dependent upon the presence of oxygen since the rate of inactivation was negligible under anaerobic conditions.
Toward that end, evidence was sought for the release of H2 O2 upon the reaction of cis-DACH with limiting amounts of PQQ or of relatively large quantities (although limiting relative to cis-DACH) of pure lysyl oxidase. As given by Table E1, hydrogen peroxide formation was seen under these conditions with the maximum levels of H2 O2 formed essentially equal to the amount of the limiting reactant in both cases, i.e., free PQQ or lysyl oxidase, respectively.
^a/ Hydrogen peroxide as assayed in the peroxidasecoupled fluorescenc
assay using 1 mM cisDACH as the sole source of amine substrate and
containing lysyl oxidase or PQQ at the indicated amounts. Incubations wer
continued until the release of H2 O2 was maximal in each case.
The quantity of lysyl oxidase used is expressed in the Table in terms of
functional active site content. The concentration of PQQ was determined
using 19,122 as the molar extinction coefficent.

lysyl oxidase [6] = target: T1, lysyl oxidase; assay: Perturbation of the absorption spectrum of lysyl oxidase; set-up: species or system bovine
Method: Absorption spectra were recorded in 1 cm cuvettes with a Hewlett Packard Diode Array spectrophotometer, with temperatures controlled by circulating water through the cuvette holder. Mixtures were made anaerobic by purging buffers and stock solutions in rubber-capped tubes with high purity nitrogen for 15 min, and then injecting aliquots of the solutions into a 1 cm semi-micro cuvette fitted with a rubber septum and flushed with nitrogen before addition of reagents. Once in the capped cuvette, each solution was further exposed to a stream of nitrogen passed over the surface of the solution and out of the capped cuvette through 21 guage needles for 5 min. just prior to spectral recording. Each perturbation described was reproducible in three or more trials.
Increased absorption occurs in accordance with an increase in optical density occurring in the region of 250 nm; a broad peak also develops with a maximum absorbance at 350-355 nm upon incubation of 47 uM cis-DACH with 4.25 uM of functional active sites in lysyl oxidase as shown in FIG. 6B. The absorption peak at 350-355 nm correlates quite well with a peak generated at the same position in the spectrum of PQQ by its interaction with cis-DACH.

[7] = n-hexylamine substrate, competitive, read-out: KI, competitive inhibition of lysyl oxidase activity against n-hexylamine
[8] = lysyl oxidase as oxidant, mean of 3 amounts

IC50 (lysyl oxidase [1]; n-hexylamine oxidation, extrapolated, read-out: (extrapolated) I50 in assays of n-hexylamine oxidation): > 10000 µM
fold less inhibitory than cis-DACH (lysyl oxidase [1]; n-hexylamine oxidation, relative to cis-DACH): at least 10,000 fold
SMILES: N[C@@H]1CCCC[C@H]1N (relative stereo) [trans-DACH, 1,2-Diaminocyclohexane, reference compound]

SMILES: NCCN [EDA, Ethylenediamine]
Ki (lysyl oxidase [1]; [7]): 2 µM
rate of inactivation under anaerobic conditions (lysyl oxidase [2]): markedly reduced

Ratio ^3 H^+/Oxidant (lysyl oxidase [3]; 0.50 nanomoles lysyl oxidase active sites): 1.96
^3 H^+ Released (lysyl oxidase [3]; 0.50 nanomoles lysyl oxidase functional active sites): 0.98 Nanomoles
Ratio ^3 H^+/Oxidant (lysyl oxidase [3]; 1.24 nanomoles lysyl oxidase active sites): 1.80
^3 H^+ Released (lysyl oxidase [3]; 1.24 nanomoles lysyl oxidase functional active sites): 2.23 Nanomoles
Ratio ^3 H^+/Oxidant (lysyl oxidase [3]; 3.72 nanomoles lysyl oxidase active sites): 1.87
^3 H^+ Released (lysyl oxidase [3]; 3.72 nanomoles lysyl oxidase functional active sites): 6.95 Nanomoles
Ratio ^3 H^+/Oxidant, mean (lysyl oxidase [3]; [8]): 1.88 ± 0.07
SMILES: [3H]C1(N)CCCCC1([3H])N (centres unmarked) [[1,2-^3 H]DACH, [1,2-^3 H]-1,2-diaminocyclohexane]
^3 H^+ released per mole of functional active site in lysyl oxidase (lysyl oxidase [3]; limiting lysyl oxidase): 1.88 moles of ^3 H^+ released per mole of functional active site

removal of copper from the active site (lysyl oxidase [4]): did not remove copper
Ki (lysyl oxidase [1]; as restated in the summary, read-out: KI): 0.38 µM
IC50 (lysyl oxidase [1]; n-hexylamine oxidation, read-out: I50 in assays of n-hexylamine oxidation): 1.5 µM
Ki (lysyl oxidase [1]; [7]): 0.38 µM
rate of inactivation under anaerobic conditions (lysyl oxidase [2]): negligible
reversibility of inhibition (lysyl oxidase [2]; enzyme preincubated with 0.05M cis-DACH at 37° for 15 min, then dialyzed): irreversible
kinact (lysyl oxidase [2]; preincubation at 37°, secondary reciprocal plot, read-out: limiting apparent first order rate constant for inactivation, Kinact (converted)): 0.3 s⁻¹
Ratio H2O2/Oxidant (lysyl oxidase [5]; 0.71 nanomoles lysyl oxidase active sites): 1.40
H2O2 Released (lysyl oxidase [5]; 0.71 nanomoles lysyl oxidase functional active sites): 1.0 nmol
Ratio H2O2/Oxidant (lysyl oxidase [5]; 1.78 nanomoles lysyl oxidase active sites): 0.96
H2O2 Released (lysyl oxidase [5]; 1.78 nanomoles lysyl oxidase functional active sites): 1.70 nmol
formation of H2O2 with catalytic quantities of lysyl oxidase (lysyl oxidase [5]; 2-4 ug lysyl oxidase, limit of sensitivity ca. 1 nanomole of H2O2): not detectable
Ratio H2O2/Oxidant (lysyl oxidase [5]; 2.20 nanomoles lysyl oxidase active sites): 0.69
H2O2 Released (lysyl oxidase [5]; 2.20 nanomoles lysyl oxidase functional active sites): 1.52 nmol
Ratio H2O2/Oxidant, mean (lysyl oxidase [5]; [8]): 1.02 ± 0.29
perturbation of the lysyl oxidase spectrum (lysyl oxidase [6]; aerobic, 47 uM cis-DACH with 4.25 uM functional active sites): perturbed
perturbation of the lysyl oxidase spectrum under anaerobic conditions (lysyl oxidase [6]; anaerobic): not altered significantly
SMILES: N[C@@H]1CCCC[C@@H]1N [cis-DACH, 1,2-Diaminocyclohexane]
